Test results published in patent US20090287077A1, “SYSTEM FOR DETECTING FUNCTION OF INTESTINAL BARRIER AND METHOD FOR USING THE SAME” (NATIONAL TAIWAN UNIVERSITY, priority 2008, published 2009).

Experiment: Plasma concentration of Gd-containing contrast agent after injection into jejunal pouch (MRI of plasma samples, standard curve)
Assay type: in vivo, rat
Details: for concentration of the Gd-containing contrast agent in the plasma: 0.5 ml (0.5 M) into jejunal pouch, mean±SEM
Procedure: Male Wistar rats weighed 250 g to 300 g were used in this experiment. The rats were randomly divided into 2 groups: sham-operation control group (CON) and ischemia/reperfusion group (I/R). Before the experiment, the rats were fasted overnight but allowed to drink water ad lib. The experiment was conducted in a sterile environment. The rats in the two groups were anethesized by intraperitoneal injection of ethyl urethane (1.2 g/kg), and then subjected to abdominal median incision. A jejunal pouch of 10 cm was made at 10 cm from the end of suspensory ligament of duodenum. A 1 ml syringe with a PE-10 catheter was intubated to one end of the jejunal pouch and 0.5 ml of Krebs buffer solution was slowly injected into the pouch from the syringe. The formula of Krebs buffer solution was as follows: 115 mmol/L of NaCl, 8 mmol/L of KCl, 1.25 mmol/L of Ca Cl2, 1.2 mmol/L of MgCl2, 2.0 mmol/L of KH2PO4 and 25 mmol/L of NaHCO3, with a pH of 7.33 to 7.37. […] The CON rats were subjected to abdominal median incision but not subjected to SMA closure. Thereafter, the tissue samples were taken from the rats of these 2 groups for histologic examination and analysis of bacterial translocation (as shown below). […]
In order to determine the rate of the Gd-containing contrast agent transferred from jejunal lumen into systemic circulation, a PE-50 catheter was intubated into left femoral artery before the surgical operation. […] The intensity of signal indication of each plasma sample and of each standard solution was calculated by using a determining device to circle a region of 4 mm^2 in MRI image and to calculate the intensity of signal indication in the region (mm^2). […] The concentration of the Gd-containing contrast agent in the plasma samples at each time point was calculated, using the standard curve. The flow-out rate of the Gd-containing contrast agent flowing from intestinal lumen to systemic circulation at different stages of reperfusion was calculated and expressed in mM/min.

concentration of the Gd-containing contrast agent in the plasma (CON rats (sham operation), 15 minutes): 0.006 ± 0.004 mM
concentration of the Gd-containing contrast agent in the plasma (I/R rats (20 min SMA closure), after 15 minutes of reperfusion): 0.220 ± 0.044 mM
Compound: CNC(=O)CN(CCN(CCN(CC(=O)[O-])CC(=O)NC)CC(=O)[O-])CC(=O)[O-].[Gd+3] [Gd-containing contrast agent]
flow-out rate of the Gd-containing contrast agent from intestinal lumen to systemic circulation, I/R rats versus CON rats (stage of 0-15 minutes of reperfusion): significantly higher than that in CON rats
